For eight molecules, EC50 and IC50 results are on record in patent US11440923B2, “Substituted macrocyclic indole derivatives” (Bayer Aktiengesellschaft, priority 2017, dated 2022).

Format in all cases: cell-based
In data set [1] the test system is SUDHL5 cells. The data set can be described thus: Induction of caspase-3/7 activity in SUDHL5 cells (Assay 4). As to the method:
(§1) Induction of Caspase-3/7 Activity Upon Treatment of Cells with Selected Compounds
(§2) The BH3-domain of MCL-1 sequesters pro-apoptotic proteins, thereby inhibiting apoptosis. In contrast, MCL-1 inhibitors are expected to antagonize this effect leading to an increase in apoptosis, which can be determined by measuring the activity of caspase-3/7.
(§3) The activity of caspase-3/7 was determined in DLBCL (Diffuse large B-cell lymphoma) cell lines (SUDHL5 and SUDHL10) upon treatment with different compounds, using the Caspase-Glo® 3/7 reagent from Promega (G8092).
(§4) As a control, medium without cells was also added to the plate. Cells were incubated in a humidified incubator at 37° C. overnight.
(§5) Rim wells were excluded. The cells were incubated for 3 h hours in a humidified incubator at 37° C. After this incubation, 30 μL of Caspase-Glo® 3/7 reagent (Promega G8092) was added to each well using the Multidrop Combi Reagent Dispenser, followed by 1 h incubation at 37° C. Finally, luminescence was read at 0.1 ms, with a gain of 3000 using the PHERAstar FS microplate reader (BMG Labtech).
(§6) For the evaluation of the results, the background measured with “medium-only” was subtracted from all other values. Then, the values were normalized to DMSO-only treated cells (every value was divided by the mean of the DMSO control).

Data set [2] deals with SUDHL10 cells. As to the kind of experiment: Induction of cytotoxicity in SUDHL10 cells (Assay 6). Conditions: 5 h, CellTiter-Glo; read-out: Cytotox SUDHL10 IC50 (median). Here is the method: (§7) Assay 6 Induction of Cytotoxicity Upon Treatment of Cells with Selected Compounds
(§8) In principle, compounds that induce apoptosis will concomitantly induce cell cytotoxicity. Therefore, cytotoxicity assays were run in parallel in SUDHL5 and SUDHL10 cells.
(§9) As a control, medium without cells was also added to the plate. Cells were incubated in a humidified incubator at 37° C. overnight. […] Rim wells were excluded. The cells were incubated for 5 h hours in a humidified incubator at 37° C. After this incubation, 30 μL of CellTiter-Glo® Luminescent Cell Viability reagent (Promega, G7573) was added to each well using the Multidrop Combi Reagent Dispenser, followed by 15 min incubation on a shaker at room temperature. Finally, luminescence was read at 0.1 ms, with a gain of 3000 using the PHERAstar FS microplate reader (BMG Labtech).

For data set [3], the system named is SUDHL5 cells. As to the kind of experiment: Antiproliferation assay SUDHL5 (Assay 7). Here is the method: (§10) Assessment of the Anti-Proliferative Effect of Compounds in Different Cell Lines
(§11) The impact of compounds on the proliferation of different cell lines was assessed using the CellTiter-Glo® Luminescent Cell Viability reagent from Promega (G7573).
(§12) In parallel, cells were plated in a reference (day 0) plate for time zero determination. Cells were incubated in a humidified incubator at 37° C. overnight.
(§13) Rim wells were excluded. The cells were incubated for 72 h hours in a humidified incubator at 37° C. The day 0 plate was measured by adding 30 μL/well of CTG solution (CellTiter-Glo® Luminescent Cell Viability reagent, Promega G7573) to time zero wells in the reference plate followed by a 10 minutes incubation and luminescence reading at 0.1 ms. using the PHERAstar FS microplate reader (BMG Labtech).
(§14) After 72 h incubation, the treated plates were measured in the same way as the day 0 plate mentioned above. The Bella DRC Master Sheet was used to calculate IC50s, with CI=day 0 values and C0=DMSO control values.

The test system of data set [4] is AMO-1 cells. The data set can be described thus: Antiproliferation assay AMO-1 (Assay 7). Here is the method: as §10, §11, §12, §13, §14
Data set [5] deals with SUDHL10 cells. As to the kind of experiment: Induction of caspase-3/7 activity in SUDHL10 cells (Assay 4). Here is the method: as §1, §2, §3, §4, §5, §6
The test system of data set [6] is HMC-1-8 cells. The data set can be described thus: Antiproliferation assay HMC-1-8 (Assay 7). Here is the method: as §10, §11, §12, §13, §14
In data set [7] the test system is SUDHL5 cells. As to the kind of experiment: Induction of cytotoxicity in SUDHL5 cells (Assay 6). The following applies: 5 h, CellTiter-Glo, read-out: Cytotox SUDHL5 IC50 (median). As to the method: as §7, §8, §9
(In general: ATP-based viability assays read luminescence as a measure of living cells.)

[8] abbreviates: caspase-3/7 induction, 3 h; read-out: Caspase SUDHL5 EC50 (median).
Where [9] appears, read: 72 h, CellTiter-Glo; read-out: Antiproli SUDHL5 IC50 (median).
Setting [10] is: 72 h, CellTiter-Glo; read-out: Antiproli AMO-1 IC50 median.
Setting [11] is: caspase-3/7 induction, 3 h; read-out: Caspase SUDHL10 EC50 (median).
[12] abbreviates: 72 h, CellTiter-Glo; read-out: Antiproli HMC-1-8 IC50 median.

Each structure is given as a SMILES string. Counter-ions that a name gives are not always drawn. Like-named read-outs stand apart in the source and are kept apart here.

As usually defined, the EC50 is the concentration needed to bring the measured effect to its halfway point. The IC50 is the concentration that gives 50% inhibition.

Regarding `CCc1c2c(nn1C)C(CCN1CCOCC1)N(C)CCCCn1c(C(=O)O)c(CCCOc3cccc4ccccc34)c3ccc(Cl)c-2c31` (racemic) [Example 100, (rac)-4-chloro-3-ethyl-2,14-dimethyl-(15-rac)-[2-(morpholin-4-yl)ethyl]-7-{3-[(naphthalen-1-yl)oxy]propyl}-10,11,12,13,14,15-hexahydro-2H-pyrazolo[3′,4′:8,9][1,6]diazacycloundecino[10,11,1-hi]indole-8-carboxylic], the EC50 in data set [1] (setting [8]) is 210 nM; in data set [5] (setting [11]), 230 nM. Besides, the IC50 in data set [2] worked out at 320 nM; in data set [3] (setting [9]) it was 260 nM; in data set [4] (setting [10]) it was 224 nM; in data set [6] (setting [12]), 3560 nM; in data set [7], 340 nM.

Regarding `CCc1c2c(nn1C)C(CCN1CCOCC1)OCC(F)(F)CCn1c(C(=O)O)c(CCCOc3cccc4cc(F)ccc34)c3ccc(Cl)c-2c31` (single isomer, unassigned; (+)) [Example 87, (+)-4-chloro-3-ethyl-12,12-difluoro-7-{3-[(6-fluoronaphthalen-1-yl)oxy]propyl}-2-methyl-15-[2-(morpholin-4-yl)ethyl]-2,10,11,12,13,15-hexahydropyrazolo[4′,3′:9,10][1,6]oxazacycloundecino[8,7,6-hi]indole-8-carboxylic Acid], the results for the EC50 in data set [1] (setting [8]) and in data set [5] (setting [11]) were 58 nM and 84 nM, respectively. Moreover, the IC50 in data set [3] (setting [9]) amounted to 68 nM; in data set [4] (setting [10]), 63.9 nM; in data set [6] (setting [12]) it was 1500 nM; in data set [7], 61 nM.

On to `CCc1c2c(nn1C)C(CCN1CCOCC1)OCC(F)(F)CCn1c(C(=O)O)c(CCCOc3cccc4cc(F)ccc34)c3ccc(Cl)c-2c31` (single isomer, unassigned; (-)) [Example 88, (−)-4-chloro-3-ethyl-12,12-difluoro-7-{3-[(6-fluoronaphthalen-1-yl)oxy]propyl}-2-methyl-15-[2-(morpholin-4-yl)ethyl]-2,10,11,12,13,15-hexahydropyrazolo[4′,3′:9,10][1,6]oxazacycloundecino[8,7,6-hi]indole-8-carboxylic Acid], for which the EC50 came to 560 nM in data set [1] (setting [8]) and 1100 nM in data set [5] (setting [11]). Besides, the half-maximal inhibitory concentration (IC50) in data set [3] (setting [9]) was 570 nM; in data set [4] (setting [10]) it was 1350 nM; in data set [6] (setting [12]) it was 3120 nM; in data set [7], 760 nM.

Turning to `CCc1c2c(nn1C)C(CCN1CCOCC1)OCC(F)(F)CCn1c(C(=O)O)c(CCCOc3cccc4cc(F)ccc34)c3ccc(Cl)c-2c31` (single isomer, unassigned; (-)) [Example 91, (−)-4-chloro-3-ethyl-12,12-difluoro-7-{3-[(6-fluoronaphthalen-1-yl)oxy]propyl}-2-methyl-15-[2-(morpholin-4-yl)ethyl]-2,10,11,12,13,15-hexahydropyrazolo[4′,3′:9,10][1,6]oxazacycloundecino[8,7,6-hi]indole-8-carboxylic Acid], the EC50 in data set [1] (setting [8]) was found to be 660 nM; in data set [5] (setting [11]), 890 nM. For the same molecule, the IC50 in data set [3] (setting [9]) came to 1000 nM; in data set [4] (setting [10]) it was 729 nM; in data set [6] (setting [12]), 6100 nM; in data set [7], 790 nM.

For `CCc1c2c(nn1C)C(CCN1CCN(C)CC1)OCCCCn1c(C(=O)O)c(CCCOc3cccc4cc(F)ccc34)c3ccc(Cl)c-2c31` (single isomer, unassigned; stereoisomer 2) [Example 70, (+)-4-chloro-3-ethyl-7-{3-[(6-fluoronaphthalen-1-yl)oxy]propyl}-2-methyl-15-[2-(4-methylpiperazin-1-yl)ethyl]-2,10,11,12,13,15-hexahydropyrazolo[4′,3′:9,10][1,6]oxazacycloundecino[8,7,6-hi]indole-8-carboxylic Acid—N-ethylethanamine Salt (Stereoisomer 2)], the EC50 was found to be 13000 nM in data set [1] (read-out: Caspase SUDHL5 EC50 (median); caspase-3/7 induction, 3 h) and 14000 nM in data set [5] (read-out: Caspase SUDHL10 EC50 (median); caspase-3/7 induction, 3 h). Further, the IC50 in data set [2] was found to be 20000 nM; in data set [3] (read-out: Antiproli SUDHL5 IC50 (median); 72 h, CellTiter-Glo) it was 5000 nM; in data set [4] (read-out: Antiproli AMO-1 IC50 median; 72 h, CellTiter-Glo), 12500 nM; in data set [6] (read-out: Antiproli HMC-1-8 IC50 median; 72 h, CellTiter-Glo) it was 16800 nM.

As to `CCc1c2c(nn1C)C(CCN1CCN(C)CC1)OCCCCn1c(C(=O)O)c(CCCOc3cccc4cc(F)ccc34)c3ccc(Cl)c-2c31` (single isomer, unassigned; stereoisomer 4) [Example 73, (−)-4-chloro-3-ethyl-7-{3-[(6-fluoronaphthalen-1-yl)oxy]propyl}-2-methyl-15-[2-(4-methylpiperazin-1-yl)ethyl]-2,10,11,12,13,15-hexahydropyrazolo[4′,3′:9,10][1,6]oxazacycloundecino[8,7,6-hi]indole-8-carboxylic Acid (Stereoisomer 4)], the EC50 is 5200 nM in data set [1] (Homo sapiens, SU-DHL-5, 3 h, caspase-3/7 induction, 3 h; read-out: Caspase SUDHL5 EC50 (median)) and 8800 nM in data set [5] (Homo sapiens, SU-DHL10, 3 h, caspase-3/7 induction, 3 h; read-out: Caspase SUDHL10 EC50 (median)). For the same molecule, the IC50 in data set [3] (Homo sapiens, SU-DHL-5, 72 h, 72 h, CellTiter-Glo; read-out: Antiproli SUDHL5 IC50 (median)) is 6100 nM; in data set [4] (Homo sapiens, AMO1, 72 h, 72 h, CellTiter-Glo; read-out: Antiproli AMO-1 IC50 median) it was 3840 nM; in data set [6] (72 h, CellTiter-Glo, read-out: Antiproli HMC-1-8 IC50 median) it was above 33000 nM; in data set [7] (Homo sapiens, SU-DHL-5, 5 h), 7700 nM.

With `CCc1c2c(nn1C)C(CCN1CCOCC1)OCC(F)(F)CCn1c(C(=O)O)c(CCCOc3cccc4cc(F)ccc34)c3ccc(Cl)c-2c31` (stereo not shown) [Example 86, 4-chloro-3-ethyl-12,12-difluoro-7-{3-[(6-fluoronaphthalen-1-yl)oxy]propyl}-2-methyl-15-[2-(morpholin-4-yl)ethyl]-2,10,11,12,13,15-hexahydropyrazolo[4′,3′:9,10][1,6]oxazacycloundecino[8,7,6-hi]indole-8-carboxylic Acid], the concentration giving a half-maximal response (EC50) was 100 nM in data set [1] (setting [8]) and 140 nM in data set [5] (setting [11]). Moreover, the IC50 in data set [3] (setting [9]) was 200 nM; in data set [4] (setting [10]), 193 nM; in data set [6] (setting [12]), 1590 nM; in data set [7], 150 nM.

Turning to `CCc1c2c(nn1C)C(CCN1CCOCC1)N(C)CCCCn1c(C(=O)O)c(CCCOc3cccc4cc(F)ccc34)c3ccc(Cl)c-2c31` (stereo not shown) [Example 98, 4-chloro-3-ethyl-7-{3-[(6-fluoronaphthalen-1-yl)oxy]propyl}-2,14-dimethyl-15-[2-(morpholin-4-yl)ethyl]-10,11,12,13,14,15-hexahydro-2H-pyrazolo[3′,4′:8,9][1,6]diazacycloundecino[10,11,1-hi]indole-8-carboxylic Acid—N-ethylethanamine Salt], the results for the EC50 in data set [1] (setting [8]) and in data set [5] (setting [11]) were 1000 nM and 1500 nM, respectively. The IC50 was 1200 nM in data set [3] (setting [9]), 860 nM in data set [4] (setting [10]), 11500 nM in data set [6] (setting [12]) and 1400 nM in data set [7].
